From patent publication US11613527B2, “Enzyme inhibitors” (KalVista Pharmaceuticals Limited, priority 2019, dated 2023)

Legend:
Format in all cases: biochemical
[1] = biological target: Human plasma kallikrein (Homo sapiens (Human), UniProt P03952); test: Determination of the IC50 for plasma kallikrein (fluorogenic substrate H-DPro-Phe-Arg-AFC); conditions: class symbols A-D, read-out: IC50 (human PKal)
Procedure: The ability of the compounds of formula (I) to inhibit plasma kallikrein may be determined using the following biological assay:
Determination of the IC50 for Plasma Kallikrein
(§1) Plasma kallikrein inhibitory activity in vitro was determined using standard published methods (see e.g. Johansen et al., Int. J. Tiss. Reac. 1986, 8, 185; Shori et al., Biochem. Pharmacol., 1992, 43, 1209; Sturzebecher et al., Biol. Chem. Hoppe-Seyler, 1992, 373, 1025). Human plasma kallikrein (Protogen) was incubated at 25° C. with the fluorogenic substrate H-DPro-Phe-Arg-AFC and various concentrations of the test compound. Residual enzyme activity (initial rate of reaction) was determined by measuring the change in optical absorbance at 410 nm and the IC50 value for the test compound was determined.

[2] = biological target: Human KLK1 (Homo sapiens (Human), UniProt P06870); test: Determination of the IC50 for KLK1 (fluorogenic substrate H-DVal-Leu-Arg-AFC)
Procedure: Selected compounds were further screened for inhibitory activity against the related enzyme KLK1. The ability of the compounds of formula (I) to inhibit KLK1 may be determined using the following biological assay:
Determination of the IC50 for KLK1
as §1, with “KLK1” for “Plasma kallikrein”, “KLK1 (Callbiochem)” for “plasma kallikrein (Protogen)”, “H-DVal-Leu-Arg-AFC” for “H-DPro-Phe-Arg-AFC”

[3] = biological target: Human FXIa (Homo sapiens (Human), UniProt P03951); test: Determination of the % inhibition for FXIa (fluorogenic substrate Z-Gly-Pro-Arg-AFC; 40 μM or IC50)
Procedure: Selected compounds were further screened for inhibitory activity against the related enzyme FXIa. The ability of the compounds of formula (I) to inhibit FXIa may be determined using the following biological assay:
Determination of the % Inhibition for FXIa
FXIa inhibitory activity in vitro was determined using standard published methods (see e.g. Johansen et al., Int. J. Tiss. Reac. 1986, 8, 185; Shori et al., Biochem. Pharmacol., 1992, 43, 1209; Sturzebecher et al., Biol. Chem. Hoppe-Seyler, 1992, 373, 1025). Human FXIa (Enzyme Research Laboratories) was incubated at 25° C. with the fluorogenic substrate Z-Gly-Pro-Arg-AFC and 40 μM of the test compound (or alternatively at various concentrations of the test compound in order to determine IC50). Residual enzyme activity (initial rate of reaction) was determined by measuring the change in optical absorbance at 410 nm and the IC50 value for the test compound was determined.

Sequence of Human KLK1 (P06870 25-262): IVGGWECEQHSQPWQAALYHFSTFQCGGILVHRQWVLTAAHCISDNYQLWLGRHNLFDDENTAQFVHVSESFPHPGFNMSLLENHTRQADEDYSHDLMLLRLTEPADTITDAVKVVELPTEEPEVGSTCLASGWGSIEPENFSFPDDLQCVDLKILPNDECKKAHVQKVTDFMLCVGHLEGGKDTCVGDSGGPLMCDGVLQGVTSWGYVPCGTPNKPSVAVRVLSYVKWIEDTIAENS
Sequence of Human plasma kallikrein (P03952 391-638): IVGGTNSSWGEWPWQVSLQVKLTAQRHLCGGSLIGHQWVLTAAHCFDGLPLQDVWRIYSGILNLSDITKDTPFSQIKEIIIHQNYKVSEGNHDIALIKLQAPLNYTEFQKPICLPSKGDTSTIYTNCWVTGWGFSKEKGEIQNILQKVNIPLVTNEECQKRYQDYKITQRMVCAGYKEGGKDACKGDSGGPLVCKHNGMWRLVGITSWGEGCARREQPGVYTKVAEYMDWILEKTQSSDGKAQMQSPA
Sequence of Human plasma kallikrein (P03952 20-390 partner): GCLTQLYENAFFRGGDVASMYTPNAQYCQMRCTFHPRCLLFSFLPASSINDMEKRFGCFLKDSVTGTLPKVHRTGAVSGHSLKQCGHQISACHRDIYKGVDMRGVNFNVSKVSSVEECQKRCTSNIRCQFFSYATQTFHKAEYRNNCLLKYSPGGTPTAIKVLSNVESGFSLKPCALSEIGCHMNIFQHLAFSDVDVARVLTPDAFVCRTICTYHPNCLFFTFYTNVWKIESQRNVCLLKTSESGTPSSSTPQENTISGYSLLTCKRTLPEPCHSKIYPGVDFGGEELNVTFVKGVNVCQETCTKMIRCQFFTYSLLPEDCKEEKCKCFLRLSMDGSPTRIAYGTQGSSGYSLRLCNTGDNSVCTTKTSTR
Sequence of Human FXIa (P03951 388-625): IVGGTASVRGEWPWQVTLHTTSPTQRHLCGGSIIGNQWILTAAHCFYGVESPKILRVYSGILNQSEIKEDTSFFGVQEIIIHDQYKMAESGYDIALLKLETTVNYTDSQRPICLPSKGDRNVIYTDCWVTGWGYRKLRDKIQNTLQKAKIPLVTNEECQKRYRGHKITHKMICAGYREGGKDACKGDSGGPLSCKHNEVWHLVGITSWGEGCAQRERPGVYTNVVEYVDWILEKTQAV
Sequence of Human FXIa (P03951 19-387 partner): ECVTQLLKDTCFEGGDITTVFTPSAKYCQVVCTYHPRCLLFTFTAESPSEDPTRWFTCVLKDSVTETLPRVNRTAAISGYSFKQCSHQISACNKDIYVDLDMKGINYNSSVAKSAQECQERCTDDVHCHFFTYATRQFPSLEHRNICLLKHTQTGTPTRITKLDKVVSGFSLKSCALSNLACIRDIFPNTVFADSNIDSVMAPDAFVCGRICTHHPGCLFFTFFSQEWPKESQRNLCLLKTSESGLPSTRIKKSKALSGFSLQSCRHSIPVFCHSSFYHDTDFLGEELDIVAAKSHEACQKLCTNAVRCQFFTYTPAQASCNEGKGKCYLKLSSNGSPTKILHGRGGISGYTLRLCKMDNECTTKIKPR

Structure (SMILES)	IC50 [1]	IC50 [2]	IC50 [3]
COc1ccc(-n2cnc(C(F)(F)F)n2)c(CNC(=O)c2cnn(Cc3ccc4c(c3)CN(C)CC4)c2)c1F [Example 31, N-({2-fluoro-3-methoxy-6-[3-(trifluoromethyl)-1,2,4-triazol-1-yl]phenyl}methyl)-1-[(2-methyl-3,4-dihydro-1H-isoquinolin-7-yl)methyl]pyrazole-4-carboxamide]	< 10 nM	> 40 µM	34.6 µM
CCN1CCc2cc(Cn3cc(C(=O)NCc4c(-n5ccc(C#N)n5)ccc(OC)c4F)c(COC)n3)ccc2C1 [Example 52, N-{[6-(3-cyanopyrazol-1-yl)-2-fluoro-3-methoxyphenyl]methyl}-1-[(2-ethyl-3,4-dihydro-1H-isoquinolin-6-yl)methyl]-3-(methoxymethyl)pyrazole-4-carboxamide]	< 10 nM	> 40 µM	> 40 µM
COCc1nn(Cc2ccc3c(c2)CN(C)C3)cc1C(=O)NCc1c(-n2cnc(C(F)(F)F)n2)ccc(OC)c1F [Example 58, N-({2-fluoro-3-methoxy-6-[3-(trifluoromethyl)-1,2,4-triazol-1-yl]phenyl}methyl)-3-(methoxymethyl)-1-[(2-methyl-1,3-dihydroisoindol-5-yl)methyl]pyrazole-4-carboxamide]	< 10 nM	> 40 µM	17 µM
COCc1nn(Cc2ccc3c(c2)CN(C(C)C)C3)cc1C(=O)NCc1c(-n2cnc(C(F)F)n2)ccc(OC)c1F [Example 59, N-({6-[3-(difluoromethyl)-1,2,4-triazol-1-yl]-2-fluoro-3-methoxyphenyl}methyl)-1-[(2-isopropyl-1,3-dihydroisoindol-5-yl)methyl]-3-(methoxymethyl)pyrazole-4-carboxamide]	< 10 nM	> 40 µM	> 40 µM
COc1ccc(-n2cc(C)nn2)c(CNC(=O)c2cn(Cc3cn4c(n3)CN(C)CC4)nc2C(F)(F)F)c1F [Example 61, N-{[2-fluoro-3-methoxy-6-(4-methyl-1,2,3-triazol-1-yl)phenyl]methyl}-1-({7-methyl-5H,6H,8H-imidazo[1,2-a]pyrazin-2-yl}methyl)-3-(trifluoromethyl)pyrazole-4-carboxamide]	30 to 100 nM	> 40 µM	> 40 µM
COCc1nn(Cc2cc3n(n2)CCN(C)C3)cc1C(=O)NCc1c(-n2cc(C)nn2)ccc(OC)c1F [Example 70, N-{[2-fluoro-3-methoxy-6-(4-methyl-1,2,3-triazol-1-yl)phenyl]methyl}-3-(methoxymethyl)-1-({5-methyl-4H,6H,7H-pyrazolo[1,5-a]pyrazin-2-yl}methyl)pyrazole-4-carboxamide]	10 to 30 nM	> 40 µM	> 40 µM
COCc1nn(Cc2ccc3c(c2)C(=O)N(C)CC3)cc1C(=O)NCc1c(-n2cc(C)nn2)ccc(OC)c1F [Example 73, N-{[2-Fluoro-3-methoxy-6-(4-methyl-1,2,3-triazol-1-yl)phenyl]methyl}-3-(methoxymethyl)-1-[(2-methyl-1-oxo-3,4-dihydroisoquinolin-7-yl)methyl]pyrazole-4-carboxamide]	30 to 100 nM	> 40 µM	11.3 µM
COc1ccc(-n2cc(C)nn2)c(CNC(=O)c2cn(Cc3cc4n(n3)C3(CC3)CN(C)C4)nc2C(F)F)c1F [Example 82]	< 10 nM	> 40 µM	18.2 µM

The next lines start with the values.

IC50 [1]	IC50 [2]	IC50 [3]	Structure (SMILES)
< 10 nM	> 40 µM	19.6 µM	COc1ccc(-n2cnc(C(F)(F)F)n2)c(CNC(=O)c2cnn(Cc3ccc4c(c3)CN(C(C)C)CC4)c2)c1F [Example 32, N-({2-fluoro-3-methoxy-6-[3-(trifluoromethyl)-1,2,4-triazol-1-yl]phenyl}methyl)-1-[(2-isopropyl-3,4-dihydro-1H-isoquinolin-7-yl)methyl]pyrazole-4-carboxamide]
30 to 100 nM	> 40 µM	> 40 µM	COCc1nn(Cc2ccc3c(c2)CCN(C2CC2)C3)cc1C(=O)NCc1c(-n2cnc(C(F)F)n2)ccc(OC)c1F [Example 47, 1-[(2-cyclopropyl-3,4-dihydro-1H-isoquinolin-6-yl)methyl]-N-({6-[3-(difluoromethyl)-1,2,4-triazol-1-yl]-2-fluoro-3-methoxyphenyl}methyl)-3-(methoxymethyl)pyrazole-4-carboxamide]
30 to 100 nM	> 40 µM	> 40 µM	COCc1nn(Cc2ccc3c(c2)CCN(C2CC2)C3)cc1C(=O)NCc1c(-n2cnc(C(F)(F)F)n2)ccc(OC)c1F [Example 48, 1-[(2-cyclopropyl-3,4-dihydro-1H-isoquinolin-6-yl)methyl]-N-({2-fluoro-3-methoxy-6-[3-(trifluoromethyl)-1,2,4-triazol-1-yl]phenyl}methyl)-3-(methoxymethyl)pyrazole-4-carboxamide]
10 to 30 nM	> 40 µM	> 40 µM	COCc1nn(Cc2ccc3c(c2)CCN(C2CC2)C3)cc1C(=O)NCc1c(-n2ccc(C#N)n2)ccc(OC)c1F [Example 49, N-{[6-(3-cyanopyrazol-1-yl)-2-fluoro-3-methoxyphenyl]methyl}-1-[(2-cyclopropyl-3,4-dihydro-1H-isoquinolin-6-yl)methyl]-3-(methoxymethyl)pyrazole-4-carboxamide]
30 to 100 nM	> 4 µM	> 4 µM	COCc1nn(Cc2ccc3c(c2)CNC3)cc1C(=O)NCc1c(-n2cc(C)nn2)ccc(OC)c1F [Example 53, 1-(2,3-dihydro-1H-isoindol-5-ylmethyl)-N-{[2-fluoro-3-methoxy-6-(4-methyl-1,2,3-triazol-1-yl)phenyl]methyl}-3-(methoxymethyl)pyrazole-4-carboxamide]
< 10 nM	> 40 µM	16.3 µM	CCN1Cc2ccc(Cn3cc(C(=O)NCc4c(-n5cc(C)nn5)ccc(OC)c4F)c(COC)n3)cc2C1 [Example 56, 1-[(2-ethyl-1,3-dihydroisoindol-5-yl)methyl]-N-{[2-fluoro-3-methoxy-6-(4-methyl-1,2,3-triazol-1-yl)phenyl]methyl}-3-(methoxymethyl)pyrazole-4-carboxamide]
< 10 nM	> 40 µM	28.8 µM	COCc1nn(Cc2ccc3c(c2)CN(C)C3)cc1C(=O)NCc1c(-n2cnc(C(F)F)n2)ccc(OC)c1F [Example 57, N-({6-[3-(difluoromethyl)-1,2,4-triazol-1-yl]-2-fluoro-3-methoxyphenyl}methyl)-3-(methoxymethyl)-1-[(2-methyl-1,3-dihydroisoindol-5-yl)methyl]pyrazole-4-carboxamide]
< 10 nM	> 40 µM	> 40 µM	COCc1nn(Cc2ccc3c(c2)CN(C(C)C)C3)cc1C(=O)NCc1c(-n2cnc(C(F)(F)F)n2)ccc(OC)c1F [Example 60, N-({2-fluoro-3-methoxy-6-[3-(trifluoromethyl)-1,2,4-triazol-1-yl]phenyl}methyl)-1-[(2-isopropyl-1,3-dihydroisoindol-5-yl)methyl]-3-(methoxymethyl)pyrazole-4-carboxamide]
30 to 100 nM	> 40 µM	> 40 µM	COCc1nn(Cc2cnc3c(c2Cl)CCN(C)C3)cc1C(=O)NCc1c(-n2cc(C)nn2)ccc(OC)c1F [Example 64, 1-[(4-chloro-7-methyl-6,8-dihydro-5H-1,7-naphthyridin-3-yl)methyl]-N-{[2-fluoro-3-methoxy-6-(4-methyl-1,2,3-triazol-1-yl)phenyl]methyl}-3-(methoxymethyl)pyrazole-4-carboxamide]
10 to 30 nM	> 40 µM	> 40 µM	COCc1nn(Cc2ccc3c(c2)CCOC3)cc1C(=O)NCc1c(-n2cc(C)nn2)ccc(OC)c1F [Example 68, 1-(3,4-dihydro-1H-2-benzopyran-6-ylmethyl)-N-{[2-fluoro-3-methoxy-6-(4-methyl-1,2,3-triazol-1-yl)phenyl]methyl}-3-(methoxymethyl)pyrazole-4-carboxamide]
< 10 nM	> 40 µM	34.2 µM	COCc1nn(Cc2cnc3c(c2)CCN(C)C3)cc1C(=O)NCc1c(-n2cc(C)nn2)ccc(OC)c1F [Example 102, N-{[2-fluoro-3-methoxy-6-(4-methyl-1,2,3-triazol-1-yl)phenyl]methyl}-3-(methoxymethyl)-1-[(7-methyl-6,8-dihydro-5H-1,7-naphthyridin-3-yl)methyl]pyrazole-4-carboxamide]
